According to article PMC3706556 (Environmental microbiology, 2013):

Columns and labels:
CYP142A2 [1] = biological target: T1, CYP142A2 (Mycolicibacterium smegmatis, UniProt A0R4Q6); experiment: biochemical
CYP125A3 = CYP125A3 (Mycolicibacterium smegmatis, UniProt A0R4Y3); experiment: biochemical; format: binding, Mycobacterium smegmatis mc2 155; conditions: for Soret band position after ligand addition: CYP125A3 3 μM, ligand 50 μM, resting Soret 393 nm with shoulder at 415 nm
CYP142A2 [2] = biological target: T1, CYP142A2; conditions: CYP142A2 3 μM, ligand 50 μM; resting Soret 418 nm

Sequence of CYP125A3 (A0R4Y3 whole entry): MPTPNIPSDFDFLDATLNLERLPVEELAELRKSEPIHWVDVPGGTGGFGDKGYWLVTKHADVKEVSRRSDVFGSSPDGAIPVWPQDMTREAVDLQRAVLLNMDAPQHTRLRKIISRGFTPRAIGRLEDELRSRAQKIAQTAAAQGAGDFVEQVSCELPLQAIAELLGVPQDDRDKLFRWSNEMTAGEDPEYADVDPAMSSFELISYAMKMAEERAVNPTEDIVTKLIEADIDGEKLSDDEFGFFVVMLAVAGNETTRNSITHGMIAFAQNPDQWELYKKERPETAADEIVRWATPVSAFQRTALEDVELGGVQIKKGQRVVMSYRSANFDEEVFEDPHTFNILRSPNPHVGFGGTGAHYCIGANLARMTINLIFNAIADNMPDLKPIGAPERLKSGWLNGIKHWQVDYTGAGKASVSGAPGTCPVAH
T1 sequence (A0R4Q6 whole entry): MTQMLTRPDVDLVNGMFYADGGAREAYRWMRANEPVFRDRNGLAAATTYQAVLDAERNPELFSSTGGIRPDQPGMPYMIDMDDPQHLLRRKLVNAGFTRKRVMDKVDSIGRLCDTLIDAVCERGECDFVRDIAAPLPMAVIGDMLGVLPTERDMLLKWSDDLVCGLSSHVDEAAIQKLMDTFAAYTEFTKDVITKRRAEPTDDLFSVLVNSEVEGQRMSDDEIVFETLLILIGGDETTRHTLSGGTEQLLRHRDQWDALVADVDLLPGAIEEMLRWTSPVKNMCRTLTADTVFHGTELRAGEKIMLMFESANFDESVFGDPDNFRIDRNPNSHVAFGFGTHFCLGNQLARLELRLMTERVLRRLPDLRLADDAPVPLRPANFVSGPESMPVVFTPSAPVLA

SMILES	Kd (CYP142A2 [1]) [µM]	Kd (CYP125A3) [µM]	Soret band position after ligand addition (CYP125A3) [nm]	Soret band position after ligand addition (CYP142A2 [2]) [nm]
CC(C)CCC[C@@H](C)[C@H]1CC[C@H]2[C@@H]3CCC4=CC(=O)CC[C@]4(C)[C@H]3CC[C@]12C [Cholest-4-en-3-one]	0.52 ± 0.26	2.3 ± 1.4		
CC(C)CCC[C@@H](C)[C@H]1CC[C@H]2[C@@H]3CC=C4C[C@@H](O)CC[C@]4(C)[C@H]3CC[C@]12C [Cholesterol]	0.14 ± 0.07	1.1 ± 0.5	393	393
Clc1ccccc1C(c1ccccc1)(c1ccccc1)n1ccnc1 [Clotrimazole]	16.2 ± 0.75	14.5 ± 1.58		
Clc1ccc(COC(Cn2ccnc2)c2ccc(Cl)cc2Cl)cc1 (centres unmarked) [Econazole]	7.4 ± 0.52	7.38 ± 0.71	415	422
Clc1ccc(COC(Cn2ccnc2)c2ccc(Cl)cc2Cl)c(Cl)c1 (centres unmarked) [Miconazole]	6.58 ± 0.7	1.66 ± 0.21		
